Measurements from US20150056273A1 (National Taiwan University of Science and Technology, priority 2013, published 2015).

Key:
[1] = penetration-through experiments with different microbubble sizes, agar tissue simulator; format: in vitro ADME; details: 1 minute, 0.25 wt % Evans blue, microbubbles 2×10^8 particles/ml
[2] = percutaneous penetration experiments with different microbubble sizes, pigskin; format: in vitro ADME, pig; details: microbubbles 1 minute, then dye with ultrasound 15 minutes

penetration depth of the dye ([1]; ultrasound 1 W (1 W/cm^2)): 373 ± 23 μm | penetration depth of the dye ([1]; ultrasound 2 W (2 W/cm^2)): 354 ± 14 μm | penetration depth of the dye ([1]; ultrasound 3 W (3 W/cm^2)): 379 ± 20 μm | penetration depth of the dye ([2]; ultrasound 1 W (1 W/cm^2)): 12.78 μm | penetration depth of the dye ([2]; ultrasound 2 W (2 W/cm^2)): 14.17 μm | penetration depth of the dye ([2]; ultrasound 3 W (3 W/cm^2)): 15.5 μm
Compound: Cc1cc(-c2ccc(/N=N/c3ccc4c(S(=O)(=O)O)cc(S(=O)(=O)O)c(N)c4c3O)c(C)c2)ccc1/N=N/c1ccc2c(S(=O)(=O)O)cc(S(=O)(=O)O)c(N)c2c1O [U only, Evans blue]
